These are literature values, as cited in patent US11109615B2, “Vitamin A composition” (NESTEC S.A., priority 2015, dated 2021).

For the data set the following is noted: ambient conditions.

Regarding `CC1=C(/C=C/C(C)=C/C=C/C(C)=C/C=C/C=C(C)/C=C/C=C(C)/C=C/C2=C(C)CCCC2(C)C)C(C)(C)CCC1` [β-carotene, All-trans-β-carotene], the maximum solubility is reported as 0.08 g/100 g oil.
